Measurements taken from ChEMBL document CHEMBL1201862, “PubChem BioAssay data set” (2004).
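Grown in 96-well plates, cells were treated for 48 hours with each compound at five concentrations. Insufficient inhibition: endpoint recorded as highest concentration tested. The concentration for 50% growth inhibition is given as GI50.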 Activity calls are given as the source filed them. Rule as the data show it: active = GI50 up to about 1.1 µM and inactive = higher.

Columns and labels:
Assay in all cases: NCI anticancer screen, dose series, 48 h
[1] = system: OVCAR-8
[2] = system: OVCAR-4
[3] = system: UO-31
[4] = system: M14
[5] = system: HT-29
[6] = system: HCT-116
[7] = system: IGROV-1
[8] = system: SK-OV-3
[9] = system: NCI-H460
[10] = system: KM12
[11] = system: SF-268
[12] = system: HCC 2998
[13] = system: OVCAR-5
[14] = system: NCI-H522
[15] = system: CAKI-1
[16] = system: U-251
[17] = system: NCI-H226
[18] = system: SK-MEL-28
[19] = system: LOX IMVI

Measured: GI50

Sc1nnc(COc2ccc(Cl)cc2)o1
inactive: [1] > 100 µM | [2] > 100 µM | [3] > 100 µM | [4] > 100 µM | [5] > 100 µM | [6] > 100 µM | [7] > 100 µM | [8] > 100 µM | [9] > 100 µM | [10] > 100 µM | [11] > 100 µM | [12] > 100 µM | [13] > 100 µM | [14] > 100 µM | [15] > 100 µM | [16] > 100 µM | [17] > 100 µM | [18] > 100 µM

COc1cc(-c2cc(O)c3ccccc3n2)cc(OC)c1OC
inactive: [1] > 75 µM | [3] 51.3 µM | [4] > 75 µM | [5] > 75 µM | [6] > 75 µM | [8] > 75 µM | [9] > 75 µM | [10] > 75 µM | [11] > 75 µM | [19] > 75 µM | [12] > 75 µM | [14] > 75 µM | [16] > 75 µM | [18] > 75 µM

CC1(C)OCC(C(O)C2OC(C)(C)OC2/C=N\O)O1 (centres undefined)
inactive: [1] > 100 µM | [3] > 100 µM | [5] > 100 µM | [6] > 100 µM | [7] > 100 µM | [8] > 100 µM | [9] > 100 µM | [10] > 100 µM | [11] > 100 µM | [19] > 100 µM | [12] > 100 µM | [13] > 100 µM | [14] > 100 µM | [16] > 100 µM | [18] > 100 µM

N#Cc1cnsc1
inactive: [1] > 100 µM | [2] > 100 µM | [3] > 100 µM | [4] > 100 µM | [5] > 100 µM | [6] > 100 µM | [7] > 100 µM | [8] > 100 µM | [9] > 100 µM | [10] > 100 µM | [11] > 100 µM | [19] > 100 µM | [12] > 100 µM | [13] > 100 µM | [15] > 100 µM | [16] > 100 µM | [17] > 100 µM | [18] > 100 µM

N#CNC(=N)NC(=O)/C=C/C=C/c1ccc(Cl)cc1
inactive: [1] 82.2 µM | [2] 57.5 µM | [3] > 100 µM | [4] > 100 µM | [5] > 100 µM | [6] > 100 µM | [7] > 100 µM | [8] > 100 µM | [9] > 100 µM | [10] > 100 µM | [11] 52.7 µM | [19] > 100 µM | [13] > 100 µM | [14] > 100 µM | [15] > 100 µM | [16] > 100 µM | [17] > 100 µM | [18] > 100 µM

CC(C)OC(=O)[C@@H](O)[C@H](CO)C1=CC([Si](C)(C)c2ccccc2)=CON1
inactive: [1] > 100 µM | [2] > 100 µM | [3] > 100 µM | [4] > 100 µM | [5] > 100 µM | [6] > 100 µM | [8] > 100 µM | [9] > 100 µM | [10] > 100 µM | [11] > 100 µM | [19] > 100 µM | [12] > 100 µM | [13] > 100 µM | [15] > 100 µM | [16] > 100 µM | [17] > 100 µM | [18] > 100 µM

CC1CCC(C(C)C)C(O[C@@H]2OC(=O)C[C@@H]2Sc2ccccc2)C1 (some centres undefined)
inactive: [1] 18.9 µM | [2] 15.9 µM | [3] > 10 µM | [4] 23.2 µM | [5] 17.5 µM | [6] 25.9 µM | [7] 40.2 µM | [8] 49.8 µM | [9] 24.5 µM | [10] 20.3 µM | [11] 24.4 µM | [19] 13.1 µM | [12] 24.7 µM | [13] 43 µM | [15] 23.3 µM | [16] > 10 µM | [18] 22.3 µM

O=C(C/C(CCC(=O)N(Cc1ccccc1)Cc1ccccc1)=N/Nc1ccc([N+](=O)[O-])cc1[N+](=O)[O-])c1ccccc1
inactive: [1] > 100 µM | [2] 60.8 µM | [3] 35.2 µM | [4] 68.9 µM | [5] 54.1 µM | [6] > 100 µM | [7] > 100 µM | [8] > 100 µM | [9] 92.9 µM | [10] 77.1 µM | [11] 38.8 µM | [19] 25.4 µM | [12] 74.5 µM | [13] > 100 µM | [14] > 100 µM | [16] > 100 µM | [17] > 100 µM | [18] > 100 µM

OCC1=CC(NC2CC(CO)C(O)C(O)C2O)C(O)C(O)C1O (centres undefined)
inactive: [1] > 100 µM | [3] > 100 µM | [4] > 100 µM | [5] > 100 µM | [6] > 100 µM | [7] > 100 µM | [8] > 100 µM | [9] > 100 µM | [10] > 100 µM | [19] > 100 µM | [14] > 100 µM | [16] > 100 µM | [17] 94.4 µM | [18] > 100 µM

CC12CC[C@@H](C(C)(C)O)C1[C@@H](O)CC1(C)C2CCC2[C@@]3(C)CC[C@H](O)C(C)(C)C3C(O)C[C@]21C (some centres undefined)
inactive: [1] 16.5 µM | [2] 13.1 µM | [3] 21.6 µM | [4] 19.9 µM | [5] 12.6 µM | [6] 11.4 µM | [7] 17.7 µM | [9] 15.3 µM | [10] 14.6 µM | [11] 14.9 µM | [12] 16.3 µM | [13] 17.5 µM | [16] 13.4 µM | [18] 16.8 µM

Cn1c(=O)nc2n(-c3ccc(O)cc3)c3ccccc3nc-2c1=O
inactive: [1] 44.5 µM | [2] > 100 µM | [3] > 100 µM | [4] 20.4 µM | [5] > 100 µM | [6] > 100 µM | [7] > 100 µM | [8] > 100 µM | [9] 11 µM | [10] 55.3 µM | [11] 23.2 µM | [12] 29.9 µM | [13] > 100 µM | [14] > 100 µM | [15] 13.7 µM | [16] 14 µM | [17] 92.3 µM | [18] > 100 µM

O=C(C#Cc1cnc(O)nc1O)c1ccccc1Cl
inactive: [1] 15.2 µM | [2] 17.4 µM | [3] 21 µM | [4] 15.5 µM | [5] 36.4 µM | [6] 14.4 µM | [7] 19.5 µM | [8] 51.3 µM | [9] 24.3 µM | [10] 29.6 µM | [11] 20.7 µM | [19] 13.4 µM | [12] 16.9 µM | [13] 19.7 µM | [15] 17.1 µM | [16] 17.9 µM | [17] 28.8 µM | [18] 17.9 µM
